The record followed here is patent US8507219B2, “Method of treating inflammation with statins” (MUSC Foundation for Research Development, priority 1997, dated 2013).

The test system of assay [1] is NO production in rat resident macrophages. As to the kind of experiment: LPS-/cytokine-induced NO production (nitrite) in rat resident peritoneal macrophages. The assay is classed as cell-based. As to conditions: LPS 1.0 μg/ml, 24 h. Here is the method:
Isolation of Rat Macrophages and Induction of NO Production Resident macrophages were obtained from rats by peritoneal lavage with sterile RPMI 1640 medium containing 1% fetal bovine serum and 100 μg/ml gentamicin (Wang et al., 1995). Cells were washed three times with RPMI 1640 at 4° C. All cell cultures were maintained at 37° C. in a humidified incubator containing 5% CO2 in air. Macrophages, at a concentration of 2×10^6/ml in RPMI 1640 medium containing L-glutamine and gentamicin, were added in volumes of 800 μl to a 35 mm plate. After 1 h, nonadherent cells were removed by washing and 800 μl of serum-free RPMI 1640 medium with various stimuli were added to the adherent cells. After 24 h incubation in 5% CO2 in air at 37° C., the culture supernatants were transferred to measure NO production (Geng et al., 1995; Wang et al., 1995).
Isolation of rat macrophages and induction of NO production Resident macrophages were obtained from rat by peritoneal lavage with sterile RPMI 1640 medium containing 1% fetal bovine serum and 100 μg/ml gentamicin as described herein. Cells were washed three times with RPMI 1640 at 4° C. All cell cultures were maintained at 37° C. in a humidified incubator containing 5% CO2 in air. Macrophages at a concentration of 2×10^6/ml in RPMI 1640 medium containing L-glutamine and gentamicin were added in volumes of 800 μl to a 35 mm plate. After 1 h, nonadherent cells were removed by washing and 800 μl of serum-free RPMI 1640 medium with various stimuli were added to the adherent cells. After incubation in 5% CO2 in air at 37° C., culture supernatants were transferred to measure NO production.
Isolation of rat macrophages and induction of NO production Resident macrophages were obtained from rat by peritoneal lavage with sterile RPMI 1640 medium containing 1% FBS and 100 μg/ml gentamicin. Cells were washed three times with RPMI 1640 at 4° C., and were maintained at 37° C. in a humidified incubator containing 5% CO2 in air. Macrophages at a concentration of […] in RPMI 1640 medium containing L-glutamine and gentamicin were added in volumes of 800 μl to a 35-mm plate. After 1 h, nonadherent cells were removed by washing, and 800 μl of serum-free RPMI 1640 medium with various stimuli was added to the adherent cells. After 24 h the culture supernatants were transferred to measure NO production.
Protein was measured (Bradford, 1976).

Assay [2] relates to NO production in rat C6 glial cells. As to the kind of experiment: LPS-/cytokine-induced NO production (nitrite) in C6 glial cells. Format: cell-based. The note with it: 2 nM calyculin A along with LPS and cytokines, 24 h.
For assay [3], the system named is murine macrophage cell line RAW 264.7. In words: LPS-/cytokine-induced NO production and iNOS protein in RAW 264.7. Format: cell-based. As to conditions: 24 h. The method, then: Cells in this study were incubated in serum-free DMEM/F-12 received calyculin A along with LPS and cytokines. Samples tested included control, LPS+TNF-α, TNF-α+IFN-γ, TNF-α+IL-1β, LPS+TNF-α+calyculin A, TNF-α+IFN-γ+calyculin A, and TNF-α+IL-1β+calyculin A. After 24 h, concentration of nitrite (nmol/mg/24 h) was measured in the supernatants as described in Example 6. Data are mean±S.D. of three different studies. Cell homogenates were electrophoresed, transferred on […] against mouse macrophage iNOS as described.

Assay [4] relates to TNF-α production in rat resident macrophages. In words: LPS-/IFN-γ-induced TNF-α production (ELISA) in rat macrophages. The note with it: Macrophages, LPS 1.0 μg/ml, 24 h. The assay is classed as cell-based.
Assay [5] concerns PP 1/2A. As to the kind of experiment: PP1/2A activity in homogenates of LPS-treated astrocytes. The assay is classed as cell-based, rat. The note with it: LPS 1.0 μg/ml, 30 min; okadaic acid 0-20 nM. Here is the method: In vitro PP1/2A assay The extraction and assay for PP1/2A were performed as described (Begum and Ragolia, 1996). Control and treated cells were scraped off the dishes with 0.3 ml of phosphatase extraction buffer containing 20 mM imidazole-HCl, 2 mM EDTA, 2 mM EGTA, pH 7.0, with 10 μg/ml each of aprotinin, leupeptin, antipain, soybean trypsis inhibitor, 1 mM benzamide, and 1 mM PMSF. The cells were sonicated for 10 s and centrifuged at 2000×g for 5 min, and the supernatants were used for the assay of phosphatase activities using the protein phosphatase assay kit (Life Technologies, Inc.) according to the manufacturer's protocol.

Assay [6] relates to TNF-α production in rat primary astrocytes. As to the kind of experiment: LPS-induced TNF-α production (ELISA) in rat primary astrocytes. The assay is classed as cell-based. The note with it: Astrocytes, LPS 1.0 μg/ml, 24 h. Here is the method:
Determination of TNF-α and IL-1β in culture supernatants Cells were stimulated with LPS in serum-free media for 24 h in the presence or absence of forskolin or rolipram, and concentrations of TNF-α and IL-1β were measured in culture supernatants by using high-sensitivity enzyme-linked immunosorbent assay (R&D Systems, USA) according to the manufacturer's instructions.

The subject of assay [7] is iNOS. As to the kind of experiment: Expression of iNOS protein (immunoblot) and mRNA (Northern) in rat primary astrocytes. Format: cell-based. The note with it: LPS 1.0 μg/ml. Here is the method:
Immunoblot analysis for iNOS Following 24 h incubation in the presence or absence of stimuli by different cytokines or LPS, macrophages were scraped off, washed with Hank's buffer, and homogenized in 50 mM Tris-HCl (pH 7.4) containing protease inhibitors ([…] PMSF, 5 μg/ml aprotinin, 5 μg/ml pepstatin A, and 5 μg/ml leupeptin). After electrophoresis the proteins were transferred onto a nitrocellulose membrane, and the iNOS band was visualized by immunoblotting with antibodies against mouse macrophage iNOS and [^125I]-labeled protein A (Singh et al., 1988).
RNA isolation, Northern blot analysis, and reverse-transcriptase coupled polymerase chain reaction (RT-PCR) Stimulated peritoneal macrophages were taken out from culture dishes directly by adding Ultraspec-II RNA reagent (Biotecx Laboratories Inc.) and total RNA was isolated according to the manufacturer's protocol. For northern blot analyses, 20 μg of total RNA was electrophoresed on 1.2% denaturing formaldehyde-agarose gels, electrotransferred to Hybond-Nylon Membrane (Amersham) and hybridized at 68° C. with ^32P-labeled cDNA probe using Express Hyb hybridization solution (Clontech) as described by the manufacturer. […]; After hybridization filters were washed two to three times in solution I (2×SSC, 0.05% SDS) for 1 h at room temperature followed by solution II (0.1×SSC, 0.1% SDS) at 50° C. for another hour. The membranes were then dried and exposed to X-ray film (Kodak). The same filters were stripped and rehybridized with probes for GAPDH. The relative mRNA content for iNOS was measured after scanning the bands with a Biorad (Model GS-670) imaging densitometer.
Immunoblot analysis for iNOS Following 24 h incubation in the presence or absence of different stimuli, cells were scraped off, washed with Hank's buffer, and homogenized in 50 mM Tris-HCl (pH 7.4) containing protease inhibitors. After electrophoresis the proteins were transferred onto a nitrocellulose membrane, and the iNOS band was visualized by immunoblotting with antibodies against mouse macrophage iNOS and [^125I]-labeled protein A.
RNA isolation and Northern blot analysis Cells were taken out from culture dishes directly by adding Ultraspec-II RNA reagent (Biotecx Laboratories Inc.) and total RNA was isolated according to the manufacturer's protocol. For Northern blot analyses, 20 μg of total RNA was electrophoresed on 1.2% denaturing formaldehyde-agarose gels, electrotransferred to Hybond-Nylon Membrane (Amersham) and hybridized at 68° C. with ^32P-labeled cDNA probe using Express Hyb hybridization solution (Clontech) as described by the manufacturer. […]; After hybridization filters were washed two or three times in solution I (2×SSC, 0.05% SDS) for one hour at room temperature followed by solution II (0.1×SSC, 0.1% SDS) at 50° C. for another hour. The membranes were then dried and exposed with X-ray films (Kodak). The same filters were stripped and rehybridized with probes for GAPDH. The relative mRNA content for iNOS was measured after scanning the bands with a Biorad (Model GS-670) imaging densitometer.
Immunoblot analysis for iNOS After a 24 h incubation in the presence or absence of different stimuli, cells were scraped off, washed with Hank's buffer, and homogenized in 50 mM Tris-HCl (pH 7.4) containing protease inhibitors (1 mM PMSF, 5 μg/ml aprotinin, 5 μg/ml pepstatin A, and 5 μg/ml leupeptin). After electrophoresis the proteins were transferred onto a nitrocellulose membrane, and the iNOS band was visualized by immunoblotting with antibodies against mouse macrophage iNOS and [^125I]-labeled protein A.
RNA isolation and Northern blot analysis Cells were taken out from culture dishes directly by adding Ultraspec-II RNA reagent (Biotecx Laboratories Inc., Houston, Tex.), and total RNA was isolated according to the manufacturer's protocol. […]

Assay [8] has as its system iNOS promoter. In words: iNOS promoter-derived CAT activity in rat macrophages. The assay is classed as cell-based. The note with it: LPS 1.0 μg/ml, 14 h. The method, then:
(§1) Construction of reporter plasmid, transfection and assay of chloramphenicol acetyl transferase activity The CAT (chloramphenicol acetyl transferase) under the control of nitric oxide synthase promoter (iNOS) was created by subcloning 1.5 kb promoter from pGEM-NOS at Sph I and Sal I restriction sites of pCAT-basic vector (Promega). […]. The cells were transfected by using the lipofectin (Life Technologies Inc., USA) method, as has been described in manufacturer's protocol, with 2 μg of reporter plasmid. They were then stimulated 24 h after transfection and harvested after 14 h of stimulation. CAT activity was measured as has been described.

The subject of assay [9] is iNOS promoter. In words: iNOS promoter-derived CAT activity in rat primary astrocytes. The note with it: LPS 1.0 μg/ml, 14 h. The assay is classed as cell-based. The method, then:
as §1

Regarding `COC[C@@H]([C@H](O)[C@H](O)C(=O)NCC[C@H](C)c1nc(/C=C/C[C@@H]2O[C@]3(C[C@@H](O)[C@@H]2C)O[C@H]([C@H](C[C@H](O)[C@H](C)[C@H](O)[C@H](C)/C=C(C)/C(C)=C/C=C/C(C)=C\C#N)OC)[C@H](OP(=O)(O)O)C3(C)C)co1)N(C)C` [Calyculin A], the “LPS-induced NO production” value in assay [1] is given as “inhibited the LPS-induced NO production in rat peritoneal macrophages”. For the same molecule, the “stimulation of the production of NO” value in [2] was “more than three fold”. Further, the “LPS- and cytokine-induced production of NO and iNOS protein” value in assay [3] was “inhibit the LPS- and cytokine-induced production of NO and the expression of iNOS protein”. Further, the TNF-α in assay [4] (inhibitor 1 nM) amounted to 27.5 ± 3.1 ng/24 h/mg protein; in assay [4] (inhibitor 2 nM), 31.2 ± 3.6 ng/24 h/mg protein; in assay [6] (inhibitor 1 nM), 12.5 ± 1.6 ng/24 h/mg protein; in [6] (inhibitor 2 nM), 16.9 ± 2.1 ng/24 h/mg protein. For the same molecule, the “activities of PP 1/2A” value in assay [5] is “also inhibited the activities of PP 1/2A”. The “LPS-mediated induction of iNOS protein and mRNA” value in assay [7] is “enhanced the LPS-mediated induction of iNOS protein and mRNA”.

As to `C=C1[C@@H](O)[C@@H]2O[C@]3(CC[C@H](/C=C/[C@@H](C)[C@@H]4CC(C)=C[C@@]5(O[C@H](C[C@@](C)(O)C(=O)O)CC[C@H]5O)O4)O3)CC[C@H]2O[C@@H]1[C@@H](O)C[C@H](C)[C@H]1O[C@@]2(CCCCO2)CC[C@H]1C` [Okadaic acid], the TNF-α in assay [4] (inhibitor 5 nM) is given as 24.3 ± 1.9 ng/24 h/mg protein; in [4] (inhibitor 10 nM) it was 28.9 ± 3.4 ng/24 h/mg protein; in [6] (inhibitor 5 nM), 10.8 ± 1.2 ng/24 h/mg protein; in assay [6] (inhibitor 10 nM), 14.6 ± 1.8 ng/24 h/mg protein. Also, the “LPS-induced iNOS promoter-derived CAT activity” value in [8] was “inhibited the LPS-induced CAT activity in macrophages”; in [9] it was “stimulated the LPS-induced CAT activity in astrocytes”. Further, the “activities of PP 1/2A” value in assay [5] is given as “dose-dependently inhibited the activities of PP 1/2A”.
